This assay concerns LPS induced TNF release. Kind of assay: Lipopolysaccharide-Activated THP1 Cell TNF Production Assay. Particulars: Homo sapiens, THP-1; THP1 cells, bacterial LPS, TNF-α secretion at 37° C. for 3 h. Type of assay: cell-based. On the procedure:
Lipopolysaccharide-Activated THP1 Cell TNF Production Assay
THP1 cells are resuspended in fresh THP1 media (RPMI 1640, 10% heat-inactivated FBS, 1xPGS, 1XNEAA, plus 30 μM βME) at a concentration of 1E6/mL. One hundred microliters of cells per well are plated in a polystyrene 96-well tissue culture. One microgram per mL of bacterial LPS is prepared in THP1 media and is transferred to the wells. Test compounds are dissolved in 100% DMSO and are serially diluted 3 fold in a polypropylene 96-well microtiter plate (drug plate). HI control and LO control wells contain only DMSO. One microliter of test compound from the drug plate followed by 10 μL of LPS are transferred to the cell plate. The treated cells are induced to synthesize and secrete TNF-α at 37° C. for 3 h. Forty microliters of conditioned media are transferred to a 96-well polypropylene plate containing 110 μL of ECL buffer (50 mM Tris-HCl pH 8.0, 100 mM NaCl, 0.05% Tween 20, 0.05% NaN3 and 1% FBS) supplemented with 0.44 nM MAB610 monoclonal Ab (R&D Systems), 0.34 nM ruthenylated AF210NA polyclonal Ab (R&D Systems) and […] sheep anti-mouse M280 Dynabeads (Dynal). After a 2 h incubation at room temperature with shaking, the reaction is read on the ECL M8 Instrument (IGEN Inc.). A low voltage is applied to the ruthenylated TNF-α immune complexes, which in the presence of TPA (the active component in Origlo), results in a cyclical redox reaction generating light at […]. The amount of secreted TNF-α in the presence of compound compared with that in the presence of DMSO vehicle alone (HI control) is calculated using the formula: % control (POC)=(cpd−average LO)/(average HI−average LO)*100. Data (consisting of POC and inhibitor concentration in μM) is fitted to a 4-parameter equation (y=A+((B−A)/(1+((x/C)^D))), where A is the minimum y (POC) value, B is the maximum y (POC), C is the x (cpd concentration) at the point of inflection and D is the slope factor) using a Levenburg-Marquardt non-linear regression algorithm.

The structures appear in SMILES notation. pIC50: −log10 of the molar value.

Usually pIC50 stands for the IC50 on a negative log10 scale, so that one unit is a factor of ten. A lower pIC50 goes with a large IC50.

As to `Cn1c(C2CCN(CCNC(=O)OC(C)(C)C)C2)cc(-c2ccncc2)c(-c2ccc3ccccc3c2)c1=O` (centres unmarked) [Example 24, {2-[3-(1-Methyl-5-naphthalen-2-yl-6-oxo-1,6-dihydro-[4,4′]bipyridinyl-2-yl)-pyrrolidin-1-yl]-ethyl}-carbamic acid tert-butyl ester], the negative logarithm of the IC50 (pIC50) was ≥ 4.70.
Turning to `CC(C)NC[C@H]1CCCN1c1nc(-c2ccncc2)c(-c2ccc(Cl)cc2)c(=O)n1C` [Example 1], the pIC50 was ≥ 4.70.

(Values after US7026326B2, “Substituted heterocyclic compounds and methods of use” (Amgen Inc., priority 2002, dated 2006).)
